The results in this text go back to patent publication US20120122966A1, “USE OF ORGANIC DYES AS ANALGESIC AGENTS” (priority 2009, published 2012).

Common to all, as to assay type: in vivo, human
Experiment [1] has as its system renal cell carcinoma, lung and bone metastases, excruciating bone pain. Kind of experiment: Example 2: patient T., renal cell carcinoma with lung and bone metastases, bone pain, treated with crystal violet. How it is done:
Patient four. Three years ago, the left kidney was removed, and preventive chemotherapy was administered for renal cell carcinoma. In a CT examination, a 2.5×2.4×2.3 cm tumor-like mass in the right kidney projection, three round tumor-like masses from 2.6 to 2.3 cm in diameter in the left lung, and numerous bone metastases. Grave condition, dyspnea, cyanosis, […]. Complaints of excruciating bone pain. […] Treatment prescribed, including the use of an antitumor medicinal preparation. The preparation, crystal violet, was administered by mouth as a potion-16 drops of a 1% solution three times a day, and as microclysters. After 7 days of treatment, dyspnea abated, and the pain syndrome disappeared. Blood tests against the background of treatment have normalized over 3 weeks. Then, the course was repeated using crystal violet preparation which was administered into rectum in the form of 1% suppositories and by inhaling, for 12 months with half-month long breaks. During the therapy the right kidney tumor and lung metastases disappeared. No pain. Weight restored.

The test system of the next experiment is migraine. The experiment in a line: Example 8: patient O., migraine. Particulars: third day; 2 g in 100 ml of water on an empty stomach two times a day. The procedure:
Patient five.
Complaints of periodic excruciating pain in the right temporal area. Diagnosis: migraine. Prescribed treatment: malachite green oxalate preparation, 2 g dissolved in 100 ml of water on an empty stomach two times a day.

Experiment [2] has as its system metastasizing melanoma of the right forearm, metastases to the liver, pain. Kind of experiment: Example 4: patient D., metastasizing melanoma, treated with malachite green oxalate. How it is done:
Patient three. Diagnosis: metastasizing melanoma of the right forearm. Metastases to the liver and right eye. Three years ago melanoma resection was performed. A year and a half later gripes appeared in the right eye. Eye enucleation for metastasis was performed. In the examination of the internal organs, a 4×5×4 cm metastasis in the liver was detected. At the same time, relapse in the surgery area appeared. Complaints of severe pain in the liver and pain in the relapse area. Objectively: medium severity condition, skin integument pallor, a purple tumor-like mass on the right forearm with a 4×5×5 cm pronounced edema. […] Began treatment with the preparation according to the following regimen: 5 ml of a 0.000001% sterile solution of malachite green oxalate was injected under the tumor base. Later, a 2% ointment with the same preparation was applied to the skin surface. Two times a day, 500 mg of malachite green oxalate diluted in 500 ml of saline was administered intravenously. Also, 5 g of malachite green oxalate was diluted in water and administered by mouth, as well as in the form of microclysters. […] The course had continued for 3 months.

Experiment [3] deals with bladder cancer, metastases in pelvic bones, pain. Kind of experiment: Example 3: patient L., bladder cancer with pelvic bone metastases, treated with malachite green oxalate. How it is done:
Patient one. Diagnosis: bladder cancer. Metastases in pelvic bones. Three years ago bladderectomy was performed for cancer. Complaints of pain, bloody urine, frequent urination and pelvic bone pains. In CT, a 2×2×2 cm tumor-like mass in the projection of the mouth of the right ureter and a 1.5×1.1×0.9 cm in the projection of the mouth of the left ureter. In the wing of the left illium two tumor-like masses with irregular contours, 1.5 to 2.5 cm in diameter. Medium severity condition, skin integument pallor, blood in urine. […] Began treatment with the preparation—20 drops of a 1% solution of malachite green oxalate in half a glass of water by mouth and in the form of microclysters. […] The course had lasted for 4 months. […] Biphosphonates were prescribed for replacement therapy.

Experiment [4] relates to poorly differentiated pulmonary adenocarcinoma, MTS to the brain and skeleton bones, pain syndrome. Kind of experiment: Example 1: patient V., pulmonary adenocarcinoma with MTS, pain syndrome, treated with gentian violet. How it is done: Patient six. Diagnosis: poorly differentiated pulmonary adenocarcinoma. MTS [expansion not given; possibly metastases] to the brain and skeleton bones. Cachexia. Pain syndrome. Relatives state that over the last two months the patient has been receiving 5.0 ml of heroin intravenously three times a day. Otherwise, they note resumption of pronounced excruciating pain. In CT, several tumor-like masses in the mediastinum and left lung, average size 3.9×3.6×3.2 cm. Grave condition, dyspnea, cyanosis, adynamia, and sensations of pain, getting stronger when coughing. Treatment was prescribed that included the use of medicinal preparations with antineoplastic action—an organic dye, a 1% gentian violet solution. The first course of treatment using the preparation—15 drops of a 1% solution in a glass of water three times a day by mouth, additionally a microclyster—10 drops of a 1% solution in 30 ml of water at lunch, and q.h.s. a 1% suppository with the preparation. […] On the third week of treatment with the preparation the patient's condition improved. […] The lung tumor size dropped to 2.1×2.2×2.2 cm. After six months of treatment the tumor size dropped to 0.3×0.4×1.0 cm. […] Blood tests against the background of treatment have normalized.

Another experiment relates to osteoarthrosis pain. Kind of experiment: Example 7: patient T., osteoarthrosis with joint deformation, permanent pain. How it is done: Patient four. Complaints of not being able to raise their right arm above the shoulder level. In CT, effects of osteoarthrosis with joint deformation were noticed. Taking analgesic preparations turned out to be ineffective. Pain became permanent. Gentian violet preparation was prescribed, 0.0004 mg/kg of weight once a day.

Experiment [5] relates to pancreas head blastoma, pain. The experiment in a line: Example 5: patient Z., pancreas head blastoma with neck lymph node metastases, pain, treated with gentian violet. The source says: Patient two. […] Started chemotherapy. After three weeks the condition began rapidly deteriorating, accompanied by extreme weight loss—from 95 kg to 72 kg. Pain became considerably more severe. Stomach pain occurs before having a meal, i.e. after having a meal the pain is lower. At the same time stool was lightly yellow—very light color. The patient had been taking an analgesic—ketanol—infrequently, but lately has been taking it two times a day. […] Immediately after the end of the first course of phthorafurum the patient began taking gentian violet preparation, 3 mg per 50 kg of weight two times a day.

On to `CN(C)c1ccc(C(=C2C=CC(=[N+](C)C)C=C2)c2ccc(N(C)C)cc2)cc1` [crystal violet], for which the pain syndrome result in experiment [1] (after 7 days of treatment) was “disappeared”. In addition, in experiment [1] (after 7 days, 16 drops of 1% solution by mouth three times a day and microclysters), the dyspnea entry was “abated”. Besides, in experiment [1] (after the 12-month course), the pain result was “No pain” and the weight entry is recorded as “restored”. The “right kidney tumor and lung metastases” value in experiment [1] (during therapy, 1% suppositories and inhaling for 12 months with breaks) is on record as “disappeared”. For the same molecule, the blood tests entry in experiment [1] (over 3 weeks) is “normalized”.
For the molecule malachite green oxalate, in the experiment with migraine, the pain entry was “abated and has not recurred”. In addition, the blood tests result in experiment [2] (4th week) and in experiment [3] (fourth week) was “normalized” each time. The return of pain result in experiment [2] (complete course of 6 months) and in experiment [3] (complete course of 6 months) was “did not return” in each case. The weight result in experiment [2] (complete course of 6 months) and in experiment [3] (complete course of 6 months) was “restored” each time. For the same molecule, the “decrease of liver metastasis” value in experiment [2] (during the 3-month course, baseline 4×5×4 cm) is 1.5 cm. The “use of narcotics by the patient” value in experiment [2] (fifth day after the start of treatment) is recorded as “declined taking narcotics”. Further, the “pain in the area of metastases” value in experiment [2] (sixth day, injection under tumor, 2% ointment, intravenous, by mouth, microclysters) is “became duller”; in experiment [2] (tenth day), “disappeared completely”; in experiment [3] (sixth day, 20 drops of 1% solution by mouth and microclysters), “got duller”; in experiment [3] (tenth day), “disappeared completely”. Further, the “use of narcotic analgesics by the patient” value in experiment [2] (stated after the tenth day, previously 3.0 ml of morphine four times a day) is listed as “declined taking narcotic analgesics”; in experiment [3] (previously 5.0 ml of morphine three times a day), “declined taking narcotic analgesics”. Also, the “bladder tumor and pelvic metastases” value in experiment [3] (complete course of 6 months) is reported as “disappeared”. Also, the “decrease of pelvic bone metastases” value in experiment [3] (over the 4-month course) amounted to 1.5 cm.
On to `CN(C)c1ccc(C(=C2C=CC(=[N+](C)C)C=C2)c2ccc(N(C)C)cc2)cc1` [gentian violet], for which, in experiment [4] (after six months of treatment), the brain metastases result was “No brain metastases are observed”. Besides, the dyspnea entry in experiment [4] (after six months of treatment) is recorded as “abated”. The pain syndrome result in experiment [4] (after six months of treatment) is on record as “practically absent”. For the same molecule, in experiment [4] (against the background of treatment), the blood tests entry is reported as “normalized”. The “pain syndrome after the sessions” value in experiment [4] (first week, for several hours after sessions, 1% solution by mouth, microclyster, suppository) was “substantial improvement of the pain syndrome”. Moreover, the “patient's condition” value in experiment [4] (third week of treatment) was “improved”. Further, in experiment [4] (three months after start of treatment), the “MTS in the brain in CT” value was “no MTS in the brain were observed”. Also, the pain entry is given as “disappeared completely” in the experiment on osteoarthrosis pain (after a week); “abated” in the experiment with osteoarthrosis pain (after three days, 0.0004 mg/kg of weight once a day); “abated significantly” in experiment [5] (after 3 days, 3 mg per 50 kg of weight two times a day); “stopped completely” in experiment [5] (later than 3 days (then)). The return of pain result in experiment [5] (hereinafter) is reported as “has not returned”.
